Laboratory results: patent publication US10232026B2, “Vaccine for mycoplasma infection” (NATIONAL INSTITUTE OF INFECTIOUS DISEASES, priority 2009, dated 2019)

Test system: human peripheral-blood mononuclear cells
Assay: Interferon γ production by peripheral-blood mononuclear cells with interleukin 2 (ELISA)
Type: cell-based
Conditions: lipid antigen added with interleukin 2, supernatant ELISA
Protocol: It was found out that the production amount of interferon γ increased by 2 folds or more when mycoplasma-mimic particles (GGPL-I, GGPL-III) were added as compared with administration of interleukin 2 alone using human peripheral-blood mononuclear cells. The mononuclear cells were separated from the peripheral blood of a healthy individual, and a sample in which interleukin 2 and the lipid antigen were added to the mononuclear cells, and a sample of the mononuclear cells without adding the lipid antigen were cultured, and supernatants thereof were recovered, and the amounts of interferon γ in the supernatants were measured with an enzyme antibody immune method (ELISA method).
Mononuclear cells were separated from the peripheral blood of a healthy individual. A sample in which interleukin 2 and mycoplasma-mimic particles (GGPL-I, or GGPL-III) were added to the mononuclear cells, and a sample of the mononuclear cells with no addition of the mycoplasma-mimic particles were cultured, and supernatants thereof were recovered, and the amounts of interferon γ in the supernatant were measured with an enzyme antibody immune method (ELISA method).
Mononuclear cells were separated from the peripheral blood of a healthy individual. […]

SMILES: CCCCCCCCCCCCCCCC(=O)OC[C@H](CO[C@H]1O[C@H](COP(=O)(O)OCC(N)COP(=O)(O)OCC[N+](C)(C)C)[C@@H](O)[C@H](O)[C@H]1O)OC(=O)CCCCCCCCCCCCCCC (stereo partly shown) [GGPL-III]
- production amount of interferon γ in comparison with no addition of the lipid antigen: remarkably increased
